What was measured:
OGD/R-induced H9c2 cells = experiment: OGD/R-induced injury, MTT viability, H9c2; format: cell-based, rat; settings: 100 μM, compared with PBA
Description: For OGD/R treatment, H9c2 cells were washed twice with phosphate buffered saline (PBS). The medium was changed to glucose and serum free DMEM, and H9c2 cells were incubated in an incubator with 95% N2 and 5% CO2 at 37 °C. After 6 h, the medium was replaced with DMEM containing 10% FBS and 1% PS. Then H9c2 cells were returned to a normal incubator with 5% CO2 balanced with air at 37 °C for the indicated time.
Cell viability was determined by MTT assays. PBA was prepared to a stock solution dissolved in dimethyl sulfoxide (DMSO). RAW264.7, H9c2 cells, primary mouse cardiomyocytes were treated with different doses of PBA, and DMSO only as control for 48 h for the toxicity. In addition, H9c2 cells or primary mouse cardiomyocytes were treated with the indicated doses of PBA, diazoxide as positive control, DMSO only as control, then cultured with or without OGD/R treatment. At the end of the experiments, MTT was added into each well at the concentration of 0.5 mg/ml, and incubated at 37 °C for 4 h. After removal of the supernatant, 150 μL of DMSO was added to solubilize the formazan products. And the solution was measured at the absorbance of 490 nm by a spectrophotometer (Thermo Fisher Scientific, MA, USA). The results of the MTT assay in all groups were normalized to the control group with DMSO only treatment.

[1] = system: Keap1-dependent Nrf2 ubiquitination; experiment: Keap1-dependent Nrf2 ubiquitination in 293T cells; format: cell-based, human; settings: WT Keap1, 30 μM PBA 20 h, 5 μM MG132 4 h
Description: Alkylation of the BTB domain of Keap1 by covalent modifiers contributes to the disruption of the Keap1-Cul3 interactions, leading to Nrf2 activation. Next, we investigated the effect of PBA on the modulation of Nrf2 ubiquitination as Nrf2 stability is controlled by ubiquitin-mediated proteasomal degradation. First, 3X Flag-Keap1, Myc-Nrf2 and Ub plasmids were transfected into 293T cells and then, the cells were treated with 30 μM PBA for 20 h and 5 μM MG132 for another 4 h. Cell lysates were pulled down using anti-Myc beads, and immunopurified Nrf2 was examined for the occurrence of Ub by western blotting. […] As shown in Figure 6E-F, PBA could disrupt the interaction of Keap1 and Cul3 in WT-Keap1 cells, while the disruption was blocked in the Cys77S and Cys434-Keap1 mutant cells.
Figure 6 PBA suppresses Keap1-mediated ubiquitination of Nrf2 by disrupting the interaction between Cul3 and Keap1. (A and B) PBA suppressed Nrf2 ubiquitination in a Keap1-Cys77 and C434-dependent manner. First, 293T cells were transfected with WT-Keap1 or C77S and C434S-Keap1, Myc-Nrf2, and Ub plasmids for 24 h and treated with 30 μM PBA. The cell lysates were immunoprecipitated using anti-Myc beads, and the ubiquitination level was evaluated using the anti-Ub antibody. (C and D) PBA induced the dissociation of the Nrf2-Keap1 complex. Then, 293T cells were cotransfected with WT-Keap1 and Flag-Nrf2 plasmids for 24 h and treated with 30 μM PBA for 12 h. The cell lysates were immunoprecipitated with the anti-Flag antibody, and the level of Nrf2 was assessed using the anti-Nrf2 antibody. (E and F) PBA disrupted the interaction between Cul3 and Keap1. […] The cell lysates were immunoprecipitated with the anti-Flag antibody, and the level of Cul3 was measured using the anti-Cul3 antibody. #p < 0.05, ##p < 0.01, ###p < 0.001, the control vs DMSO; *p < 0.05,**p < 0.01, ***p < 0.001, PBA or tBHQ vs DMSO. […] Cell viability was measured by MTT assays. #p < 0.05, ###p < 0.001, the control vs OGD/R; **p < 0.01, ***p < 0.001, OGD/R+PBA vs OGD/R.

[2] = system: T1, interaction between Keap1 and Nrf2; experiment: Co-IP of Keap1 and Nrf2 in 293T cells; format: cell-based, human; settings: WT-Keap1, 30 μM PBA
T1 construct: expressed in transfected cells; host or cells: 293T
Description: Figure 6 PBA suppresses Keap1-mediated ubiquitination of Nrf2 by disrupting the interaction between Cul3 and Keap1. (A and B) PBA suppressed Nrf2 ubiquitination in a Keap1-Cys77 and C434-dependent manner. First, 293T cells were transfected with WT-Keap1 or C77S and C434S-Keap1, Myc-Nrf2, and Ub plasmids for 24 h and treated with 30 μM PBA. The cell lysates were immunoprecipitated using anti-Myc beads, and the ubiquitination level was evaluated using the anti-Ub antibody. (C and D) PBA induced the dissociation of the Nrf2-Keap1 complex. Then, 293T cells were cotransfected with WT-Keap1 and Flag-Nrf2 plasmids for 24 h and treated with 30 μM PBA for 12 h. The cell lysates were immunoprecipitated with the anti-Flag antibody, and the level of Nrf2 was assessed using the anti-Nrf2 antibody. (E and F) PBA disrupted the interaction between Cul3 and Keap1. The 293T cells were transfected with the WT-Keap1 or C77S-C434S-Keap1 plasmids for 24 h and treated with 30 μM PBA for 12 h. The cell lysates were immunoprecipitated with the anti-Flag antibody, and the level of Cul3 was measured using the anti-Cul3 antibody. #p < 0.05, ##p < 0.01, ###p < 0.001, the control vs DMSO; *p < 0.05,**p < 0.01, ***p < 0.001, PBA or tBHQ vs DMSO. […] Primary mouse cardiomyocytes were transfected with mouse WT-Keap1 or C77S and C434S-Keap1 mutant vectors. After 24 h, the cells were treated with the indicated doses of PBA and subjected to OGD conditions as described in the Method section for 3 h and under normal conditions for another 18 h. Cell viability was measured by MTT assays. #p < 0.05, ###p < 0.001, the control vs OGD/R; **p < 0.01, ***p < 0.001, OGD/R+PBA vs OGD/R.
To investigate the effect of PBA on the interaction of Keap1 and Nrf2, we transfected 293T cells with Flag-Keap1 and Myc-Nrf2 plasmids, and treated them with 30 μM PBA for 24 h. The protein expression of Nrf2 was measured by western blotting analysis followed by immunoprecipitation with Flag beads.

Row | Compound | protective effect against OGD/R induced injury (positive control) (OGD/R-induced H9c2 cells) | Keap1-dependent Nrf2 ubiquitination [1] | interaction between Keap1 and Nrf2 (Co-IP) [2]
1 | CC1=NS(=O)(=O)c2cc(Cl)ccc2N1 [diazoxide, reference compound] | protective effect of PBA seemed equal to that of 100 μM diazoxide | – | –
2 | CC(C)(C)c1cc(O)ccc1O [tBHQ, reference compound] | – | significantly suppressed | did not affect it
